Experimental data as given in patent US20230098667A1, “BENZODIAZEPINE DERIVATIVES, COMPOSITIONS, AND METHODS FOR TREATING COGNITIVE IMPAIRMENT” (priority 2019, published 2023).
“Also recorded” adds a separate entry of the source. Like-named read-outs stand apart in the source and are kept apart here.

Columns and labels:
α5-containing GABAA R = molecular target: T1, α5-containing GABAA R (Homo sapiens, UniProt P18507+P31644); details: cited from earlier work
T1 sequence (P31644 32-462): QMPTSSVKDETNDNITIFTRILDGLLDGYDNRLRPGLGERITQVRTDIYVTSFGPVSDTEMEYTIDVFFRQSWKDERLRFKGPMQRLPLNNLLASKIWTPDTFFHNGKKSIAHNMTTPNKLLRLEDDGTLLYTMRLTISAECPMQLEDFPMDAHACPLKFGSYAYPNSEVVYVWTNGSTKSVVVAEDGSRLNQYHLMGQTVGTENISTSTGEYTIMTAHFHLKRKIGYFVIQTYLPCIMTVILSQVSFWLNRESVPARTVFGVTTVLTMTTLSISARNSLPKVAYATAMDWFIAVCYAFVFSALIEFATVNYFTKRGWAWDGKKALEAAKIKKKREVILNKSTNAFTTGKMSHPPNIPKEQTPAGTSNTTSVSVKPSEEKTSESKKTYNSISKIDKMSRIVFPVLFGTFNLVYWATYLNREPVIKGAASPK
T1 sequence (P28472 26-473 partner): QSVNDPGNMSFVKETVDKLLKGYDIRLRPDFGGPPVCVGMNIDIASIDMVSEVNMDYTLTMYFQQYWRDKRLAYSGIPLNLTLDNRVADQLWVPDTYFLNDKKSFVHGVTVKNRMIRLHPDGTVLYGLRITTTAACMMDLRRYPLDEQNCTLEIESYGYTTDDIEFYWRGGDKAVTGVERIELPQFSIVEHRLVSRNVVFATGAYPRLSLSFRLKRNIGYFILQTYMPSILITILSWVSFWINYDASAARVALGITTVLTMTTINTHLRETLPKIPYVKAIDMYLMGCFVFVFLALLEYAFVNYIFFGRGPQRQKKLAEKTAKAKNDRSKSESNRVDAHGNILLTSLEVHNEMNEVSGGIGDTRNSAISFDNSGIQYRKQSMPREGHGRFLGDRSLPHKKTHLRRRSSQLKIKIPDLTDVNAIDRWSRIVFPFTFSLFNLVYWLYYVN
T1 sequence (P18507 40-467 limits assumed): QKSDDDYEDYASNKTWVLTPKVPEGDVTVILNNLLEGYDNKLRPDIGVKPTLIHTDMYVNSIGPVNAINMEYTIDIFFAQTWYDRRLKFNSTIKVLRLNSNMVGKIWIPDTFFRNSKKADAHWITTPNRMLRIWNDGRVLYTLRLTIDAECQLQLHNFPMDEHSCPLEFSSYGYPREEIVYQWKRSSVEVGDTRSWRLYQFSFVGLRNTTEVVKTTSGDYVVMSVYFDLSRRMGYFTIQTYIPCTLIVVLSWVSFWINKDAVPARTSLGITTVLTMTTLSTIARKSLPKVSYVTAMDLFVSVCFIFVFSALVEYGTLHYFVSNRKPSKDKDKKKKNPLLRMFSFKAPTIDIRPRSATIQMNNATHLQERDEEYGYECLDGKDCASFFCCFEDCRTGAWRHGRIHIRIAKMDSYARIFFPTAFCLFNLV

aged-impaired (AI) rats = test: Radial Arm Maze (RAM) behavioral task, two-hour delay; format: in vivo, rat; details: 3 mg/kg ip
Procedure: The effects of methyl 3,5-diphenylpyridazine-4-carboxylate on the in vivo spatial memory retention of aged-impaired (AI) rats were assessed in a Radial Arm Maze (RAM) behavioral task using vehicle control and four different dosage levels of methyl 3,5-diphenylpyridazine-4-carboxylate (0.1 mg/kg, 0.3 mg/kg, 1 mg/kg and 3 mg/kg, ip). RAM behavioral tasks were performed on eight AI rats. All five treatment conditions (vehicle and four dosage levels) were tested on all eight rats.
The RAM apparatus used consisted of eight equidistantly-spaced arms. An elevated maze arm (7 cm width×75 cm length) projected from each facet of an octagonal center platform (30 cm diameter, 51.5 cm height). Clear side walls on the arms were 10 cm high and were angled at […] to form a trough. A food well (4 cm diameter, 2 cm deep) was located at the distal end of each arm. Froot Loops™ (Kellogg Company) were used as rewards. Blocks constructed of Plexiglas™ (30 cm height×12 cm width) could be positioned to prevent entry to any arm. Numerous extra maze cues surrounding the apparatus were also provided.
The AI rats were initially subjected to a pre-training test (Chappell et al. Neuropharmacology 37: 481-487, 1998). […]

[1] = format: in vivo, Long Evans rats
Procedure: (§1) Food and water were available ad libitum.
For plasma exposures, blood samples were centrifuged at 14000 rpm for 16 minutes. After centrifuging, 50 ul of supernatant (plasma) from each sample was added to 200 μl of acetonitrile plus 0.1% formic acid. […] Samples were sonicated for 5 minutes in an ultrasonic water bath, followed by centrifugation for 30 minutes, at 16000 RPM. 100 ul of supernatant was removed from each sample vial and placed in a new glass auto sample vial, followed by the addition of 300 μl of sterile water (pH 6.5).
Additional studies were conducted in aged Long-Evans rats in order to determine the exposures at the behaviorally relevant doses in the cognition studies. Exposure in young Long-Evans rats was also determined to bridge with the receptor occupancy studies that were conducted in young Long-Evans rats. Exposures in young and aged Long-Evans rats were relatively similar (Table 4, FIG. 4).

GABAA α5 receptor = molecular target: T2, GABAA α5 receptor (Rattus norvegicus, UniProt P19969); test: GABAA α5 receptor occupancy with Ro 15-4513 tracer; format: in vivo, Long Evans rats
T2 construct: from tissue; host or cells: brain of living Long Evans rats; hippocampus and cerebellum dissected after i.v. dosing
T2 sequence (P19969 32-464 limits assumed): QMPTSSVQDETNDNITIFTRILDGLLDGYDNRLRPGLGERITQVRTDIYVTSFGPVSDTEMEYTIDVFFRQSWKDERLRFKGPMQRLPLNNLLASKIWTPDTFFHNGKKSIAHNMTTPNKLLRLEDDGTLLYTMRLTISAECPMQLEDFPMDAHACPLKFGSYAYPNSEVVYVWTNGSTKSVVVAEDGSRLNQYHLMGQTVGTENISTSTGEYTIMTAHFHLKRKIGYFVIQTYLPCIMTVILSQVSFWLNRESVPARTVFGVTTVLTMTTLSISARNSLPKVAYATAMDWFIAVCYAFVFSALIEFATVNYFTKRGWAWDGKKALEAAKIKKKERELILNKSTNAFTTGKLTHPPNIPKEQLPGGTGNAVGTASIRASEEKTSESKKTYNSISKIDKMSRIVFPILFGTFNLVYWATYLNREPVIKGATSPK
Description: as §1

[2] = system: GABA α5 versus GABA α1, GABA α2, or GABA α3; test: Binding selectivity from [3H]Ro15-1788 binding on GABAAR subtypes
Procedure: Tissue culture and Membrane Preparation: The binding was performed on Ltk cells stably expressing GABAA receptors: α1β1γ2, α2β3γ2, α3β3γ2 and α5β3γ2 (provided by Merck Co., NJ, USA). Cells were seeded in 100 mm culture plates in DMEM/F12 medium containing 10% serum and antibiotics in 5% CO2 and allowed to grow for 1-2 days. GABAAR expression was then induced by dexamethasone as follows: 0.5 μM for 1 day for α5 containing and 2 μM for 3 days for α1, α2 and α3 containing GABAARs. After induction, cells were collected by scraping into Dulbecco's Phosphate buffered saline (DPBS, pH 7.4, Invitrogen, Carlsbad, Calif., USA) and centrifuged at 150×g for 10 min. The pellet was washed twice by re-suspension and centrifugation. […] Protein content was determined using BCA assay (Bio-Rad Labs, Reinach, Switzerland) with Bovine Serum Albumin (Sigma Aldrich, St. Louis, Mo., USA) as the standard. […]
(§2) Ligand Binding: Saturation binding curves were obtained by incubating membranes with increasing concentrations (0.01-8 nM) of [^3H]Rol5-1788 (Flumazepil, 75-85 Ci/mmol, PerkinElmer, MA, USA), with nonspecific binding measured in the presence of 10 μM diazepam.
All binding assays were performed for 1 h at 4° C. in assay buffer. […] Next day, radioactivity was obtained using a scintillation counter (Beckman Coulter, Brea, Calif., USA). […]

[3] = molecular target: T3, GABAA receptors α5β3γ2 (GABA α5) (Homo sapiens, UniProt P18507+P31644); test: Binding activity on GABAAR: inhibition of [3H]Ro15-1788 binding, membranes of Ltk cells; details: α5β3γ2 Ltk cell membranes
T3 construct: membranes
T3 sequence (P31644 32-462): T1 sequence (P31644 32-462)
T3 sequence (P28472 26-473 partner): T1 sequence (P28472 26-473 partner)
T3 sequence (P18507 40-467 limits assumed): T1 sequence (P18507 40-467 limits assumed)
Procedure: Tissue culture and Membrane Preparation: The binding was performed on Ltk cells stably expressing GABAA receptors: α1β1γ2, α2β3γ2, α3β3γ2 and α5β3γ2 (provided by Merck Co., NJ, USA). Cells were seeded in 100 mm culture plates in DMEM/F12 medium containing 10% serum and antibiotics in 5% CO2 and allowed to grow for 1-2 days. GABAAR expression was then induced by dexamethasone as follows: 0.5 μM for 1 day for α5 containing and 2 μM for 3 days for α1, α2 and α3 containing GABAARs. After induction, cells were collected by scraping into Dulbecco's Phosphate buffered saline (DPBS, pH 7.4, Invitrogen, Carlsbad, Calif., USA) and centrifuged at 150×g for 10 min. The pellet was washed twice by re-suspension and centrifugation. The cell pellets from at least 5 different preps were combined, suspended in the binding assay buffer (50 mM KH2PO4; 1 mM EDTA; 0.2 M KCl, pH 7.4) and membranes prepared by sonication (3-5 times, 30 sec) using Branson Sonifier 150 (G. Heinmann, Germany). Protein content was determined using BCA assay (Bio-Rad Labs, Reinach, Switzerland) with Bovine Serum Albumin (Sigma Aldrich, St. Louis, Mo., USA) as the standard. Aliquots were prepared and stored at −20° C. for further use in binding assays.
as §2
All binding assays were performed for 1 h at 4° C. in assay buffer. The total assay volume was 0.5 ml containing 0.2 mg/ml protein for α5 and 0.4 mg/ml for α1, α2, and α3 containing GABAAR membranes. Incubations were terminated by filtration through GF/B filters using a 24-Cell Harvestor (Brandel, Gaithersburg, Md., USA) followed by 3 washes with ice-cold assay buffer. Filters were transferred to scintillation vials, 5 ml scintillation liquid added, vortex-mixed and kept in dark. Next day, radioactivity was obtained using a scintillation counter (Beckman Coulter, Brea, Calif., USA). All assays were performed in triplicate.
Data Analyses: Saturation and inhibition curves were obtained using GraphPad Prism software (GraphPad Software, Inc., CA, USA).

GABAA receptors (α5β2γ2) = molecular target: T4, GABAA receptors (α5β2γ2) (Homo sapiens, UniProt P18507+P31644); test: Positive allosteric modulator activity: potentiation of EC20 GABA current in oocytes; format: cell-based; details: @ 100 nM
T4 construct: expressed in transfected cells
T4 sequence (P31644 32-462): T1 sequence (P31644 32-462)
T4 sequence (P47870 25-512 partner limits assumed): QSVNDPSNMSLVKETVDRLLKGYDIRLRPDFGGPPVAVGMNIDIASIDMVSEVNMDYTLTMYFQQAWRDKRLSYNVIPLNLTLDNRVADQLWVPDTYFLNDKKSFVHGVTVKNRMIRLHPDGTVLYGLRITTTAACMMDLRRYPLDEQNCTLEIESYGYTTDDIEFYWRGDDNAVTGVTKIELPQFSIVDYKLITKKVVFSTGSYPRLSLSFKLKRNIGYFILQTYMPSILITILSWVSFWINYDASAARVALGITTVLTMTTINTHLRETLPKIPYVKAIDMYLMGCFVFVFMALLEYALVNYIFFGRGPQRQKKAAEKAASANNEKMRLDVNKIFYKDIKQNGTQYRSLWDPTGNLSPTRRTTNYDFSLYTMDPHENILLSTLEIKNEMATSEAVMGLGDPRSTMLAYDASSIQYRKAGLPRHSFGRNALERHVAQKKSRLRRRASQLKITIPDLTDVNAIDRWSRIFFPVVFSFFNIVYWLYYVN
T4 sequence (P18507 40-467 limits assumed): T1 sequence (P18507 40-467 limits assumed)
Procedure: On day 1, 1 ng/32 nL of GABAA α5β2γ2 cDNA was injected into one oocyte. Test starts on day 2. The cDNA injected to the oocytes was a mix of alpha, beta and gamma, their ratio is 1:1:10 (by weight) and the total weight of the mixed 3 subunits to be injected in one oocyte was 1 ng in 32 nl volume. The injected oocytes can also be tested on day 3. In such case, the cDNA amount injected to the oocytes should be reduced by 20%.
1). 8 oocytes were placed in 8 chambers of OpusXpress and superfused with Modified Barth's Saline (MBS) at 3 mL/min. Glass electrodes back-filled with 3M KCl (0.5-3 megaohms) were used. […] 2). […] 3).
1). New oocytes were used to run new test. 2). […] 3). […] Oocytes were washed with MBS for 5-10 min. 4). […] Itest was divided by IGABA to obtain potentiation (%).
1). Repeat the above steps 1), 2) and 3) in the control test. 2). […] Divide Itest by IGABA to obtain potentiation (%). 3). Discard all tested oocytes, new oocytes were used and the above steps 1) and 2) were repeated to test second concentration of the same compound. Each oocyte was used for only one concentration test for a single test compound. The steps were repeated for other test compounds.

SMILES	α5 in vitro efficacy (EC20) (α5-containing GABAA R)	average no. of errors ± SEM in retention test (aged-impaired (AI) rats)	memory performance relative to vehicle control (aged-impaired (AI) rats)	increase in hippocampal exposure ([1]; dose from 0.1 to 1 mg/kg, i.v.) [fold]	increase in exposure in hippocampus and plasma ([1]; dose from 1 to 3 mg/kg, ip, young and aged rats) [fold]	increase in hippocampal exposure ([1]; dose from 1 to 10 mg/kg, i.v.) [fold]	increase in plasma exposure ([1]; dose from 1 to 10 mg/kg, i.v.) [fold]	effect on Ro 15-4513 binding in hippocampus and cerebellum (GABAA α5 receptor; 0.01-10 mg/kg, i.v.)	GABAA α5 receptors occupied in hippocampus (GABAA α5 receptor; at exposures behaviorally active in aged-impaired rats)	receptor occupancy depending on method (GABAA α5 receptor; exposure of 180 ng/g in hippocampus (1 mg/kg, i.v.))	ED50 of receptor occupancy, ratio method (GABAA α5 receptor; i.v., ratio method) [mg/kg]	receptor occupancy at 10 mg/kg (GABAA α5 receptor; rat, iv, 10 mg/kg) [%]	Binding selectivity for GABA α5 versus GABA α1, GABA α2, or GABA α3 [2]	Ki [3] [nM]	GABA α5 functional potentiation (GABAA receptors (α5β2γ2)) [% @ 100 nM]
COC(=O)c1c(-c2ccccc2)cnnc1-c1ccccc1 [methyl 3,5-diphenylpyridazine-4-carboxylate]	+27	1.31±0.40	significantly improved memory performance	12	4.5 to 6.6	~5	12	blocked the binding of Ro154513 in the hippocampus but did not affect binding of Ro15413 in the cerebellum; also recorded: dose-dependently reduced Ro 15-4513 binding in hippocampus, without affecting cerebellum levels of Ro 15-4513	about 32%	32-39%	1.8	> 90			
COc1ncc(C#Cc2ncn3c2Cc2cnnn2-c2cc(Cl)ccc2-3)cc1C(F)(F)F [Compound 733]													>100-fold	< 100	
COCc1nnn2c1Cc1c(C#Cc3cnc(C)[nH]3)ncn1-c1ccc(Cl)cc1-2 [Compound 739]														< 100	>50
